Measured values published in patent publication US11147272B2, “Pyridone compounds and agricultural and horticultural fungicides comprising the same as active ingredients” (MITSUI CHEMICALS AGRO, INC., priority 2017, dated 2021).

How the values were obtained:
[1] = system: Magnaporthe grisea; assay: whole plant or invertebrate; assay type: in vivo; conditions: for Test A control value class: class of control value
[2] = system: Alternaia brassicicola; assay: Test Example C: Alternaria sooty spot on cabbage; assay type: in vivo; conditions: for Test C control value class: class of control value
Description: Seeds of a test plant (cabbage variety: Shikidori) were planted and cultivated until the cotyledons extended.
<Control Value> Control value=100{1−(n/3)}

[3] = system: Puccinia recondita; assay: Test Example E: Brown rust on wheat; assay type: in vivo; conditions: for Test E control value class: class of control value
[4] = system: Phytophthora infestans; assay: whole plant or invertebrate; assay type: in vivo; conditions: for Test F control value class: class of control value
[5] = system: Botrytis cinerea; assay: Test Example B: Gray mold on tomato; conditions: for Test B control value class: class of control value
[6] = system: Plasmopara viticola; assay: Test Example G: Downy mildew on vine; conditions: for Test G control value class: Downy mildew on vine (Neomuscat), 2.5 ml/pot, assessed 7 to 10 days after inoculation; for Test G control value: 7 to 10 days after inoculation
[7] = system: Colletotrichum orbiculare; assay: Test Example H: Anthracnose on cucumber; conditions: for Test H control value class: Anthracnose on cucumber (Sagami Hanjiro), 2.5 ml/pot, assessed 6 to 10 days after inoculation; for Test H control value: 6 to 10 days after inoculation
[8] = system: Blumeria graminis f. sp. hordei; assay: Test Example D: Powdery mildew on barley; conditions: for Test D control value class: class of control value
[9] = Alternaria sooty spot on cabbage
[10] = Blast on rice, control value class
[11] = Alternaria sooty spot on cabbage, control value class
[12] = Brown rust on wheat, control value class
[13] = Late blight on tomato, control value class
[14] = Gray mold on tomato, control value class
[15] = Downy mildew on vine, 250 ppm spray
[16] = Anthracnose on cucumber, 250 ppm spray
[17] = Powdery mildew on barley, control value class
[18] = 250 ppm drug solution sprayed on test plant
[19] = 250 ppm drug solution sprayed (2.5 ml/pot), grape Neomuscat
[20] = 250 ppm drug solution sprayed (2.5 ml/pot), cucumber Sagami Hanjiro

Row | Compound | Test A control value class ([1]; Blast on rice) | Test C control value class [2, 9] | Test E control value class ([3]; Brown rust on wheat) | Test F control value class ([4]; Late blight on tomato) | Test B control value class ([5]; Gray mold on tomato) | Test G control value class ([6]; 250 ppm spray) | Test H control value class ([7]; 250 ppm spray) | Test D control value class ([8]; Powdery mildew on barley) | Test A control value [1, 10] | Test C control value [2, 11] | Test E control value [3, 12] | Test F control value [4, 13] | Test B control value [5, 14] | Test G control value [6, 15] | Test H control value [7, 16] | Test D control value [8, 17] | Test A control value [1, 18] | Test C control value [2, 18] | Test E control value [3, 18] | Test F control value [4, 18] | further results
1 | CCn1c(-c2c(F)cc(OC)cc2F)c(CC(C)C)ccc1=O [compound 39] | H (more than 50% control value) | H (more than 50% control value) | H (more than 50% control value) | L (50% or less control value) | H (more than 50% control value) | H (more than 50% control value) | H (more than 50% control value) | H (more than 50% control value) | – | – | – | – | – | – | – | – | – | – | – | – | –
2 | CCC(C)c1cc(Cl)c(=O)n(CC)c1-c1c(F)cc(OC)cc1F (centres unmarked) [compound 35] | H (more than 50% control value) | H (more than 50% control value) | H (more than 50% control value) | L (50% or less control value) | H (more than 50% control value) | L (50% or less control value) | H (more than 50% control value) | H (more than 50% control value) | – | – | – | – | – | – | – | – | – | – | – | – | –
3 | CCCCCCc1cc(Cl)c(=O)n(CC)c1-c1ccc(F)cc1Cl [compound 292] | – | – | – | – | – | – | – | – | L (50% or less control value) | H (more than 50% control value) | L (50% or less control value) | L (50% or less control value) | H (more than 50% control value) | L (50% or less control value) | L (50% or less control value) | H (more than 50% control value) | – | – | – | – | –
4 | CCn1c(-c2c(F)cc(OC)cc2F)c(C(OC)C(C)C)cc(Br)c1=O (centres unmarked) [compound 503] | – | – | – | – | – | – | – | – | – | – | – | – | – | – | – | – | H (more than 50% control value) | H (more than 50% control value) | H (more than 50% control value) | L (50% or less control value) | Test B control value [5, 18]: H (more than 50% control value); Test G control value [6, 19]: H (more than 50% control value); Test H control value [7, 20]: H (more than 50% control value); Test D control value [8, 18]: H (more than 50% control value)
5 | CCCc1cc(I)c(=O)n(CC)c1-c1c(F)cc(OC)cc1F [compound 436] | – | – | – | – | – | – | – | – | – | – | – | – | – | – | – | – | H (more than 50% control value) | H (more than 50% control value) | H (more than 50% control value) | L (50% or less control value) | Test B control value [5, 18]: H (more than 50% control value); Test G control value [6, 19]: L (50% or less control value); Test H control value [7, 20]: H (more than 50% control value); Test D control value [8, 18]: H (more than 50% control value)
6 | CCCc1cc(Cl)c(=O)n(CC)c1-c1c(F)cc(OCC)cc1F [compound 457] | – | – | – | – | – | – | – | – | – | – | – | – | – | – | – | – | H (more than 50% control value) | H (more than 50% control value) | H (more than 50% control value) | L (50% or less control value) | Test B control value [5, 18]: H (more than 50% control value); Test G control value [6, 19]: L (50% or less control value); Test H control value [7, 20]: H (more than 50% control value); Test D control value [8, 18]: H (more than 50% control value)
7 | CCOc1cc(F)c(-c2c(C(C)(O)C(C)C)cc(Cl)c(=O)n2CC)c(F)c1 (centres unmarked) [compound 226] | – | – | – | – | – | – | – | – | H (more than 50% control value) | H (more than 50% control value) | H (more than 50% control value) | L (50% or less control value) | H (more than 50% control value) | L (50% or less control value) | H (more than 50% control value) | L (50% or less control value) | – | – | – | – | –
8 | CCn1c(-c2c(F)cc(F)cc2F)c(C(O)C2CC2)cc(Cl)c1=O (centres unmarked) [compound 258] | – | – | – | – | – | – | – | – | H (more than 50% control value) | H (more than 50% control value) | H (more than 50% control value) | L (50% or less control value) | H (more than 50% control value) | H (more than 50% control value) | H (more than 50% control value) | H (more than 50% control value) | – | – | – | – | –
9 | CCn1c(-c2c(F)cccc2OCOC)c(CC(C)C)cc(Cl)c1=O [compound 103] | H (more than 50% control value) | H (more than 50% control value) | H (more than 50% control value) | L (50% or less control value) | H (more than 50% control value) | H (more than 50% control value) | H (more than 50% control value) | H (more than 50% control value) | – | – | – | – | – | – | – | – | – | – | – | – | –
10 | CCCc1ccc(=O)n(CC)c1-c1c(F)cccc1F [compound 426] | – | – | – | – | – | – | – | – | – | – | – | – | – | – | – | – | H (more than 50% control value) | H (more than 50% control value) | L (50% or less control value) | L (50% or less control value) | Test B control value [5, 18]: H (more than 50% control value); Test G control value [6, 19]: L (50% or less control value); Test H control value [7, 20]: H (more than 50% control value); Test D control value [8, 18]: L (50% or less control value)
11 | CCc1cc(Br)c(=O)n(CC)c1-c1ccc(F)cc1C [compound 352] | – | – | – | – | – | – | – | – | H (more than 50% control value) | H (more than 50% control value) | H (more than 50% control value) | L (50% or less control value) | H (more than 50% control value) | L (50% or less control value) | H (more than 50% control value) | H (more than 50% control value) | – | – | – | – | –
12 | CCn1c(-c2c(F)cc(OC)cc2F)c(C(C)C(C)C)cc(Cl)c1=O (racemic) [compound 171] | H (more than 50% control value) | H (more than 50% control value) | H (more than 50% control value) | L (50% or less control value) | H (more than 50% control value) | H (more than 50% control value) | H (more than 50% control value) | H (more than 50% control value) | – | – | – | – | – | – | – | – | – | – | – | – | –
13 | CCn1c(-c2c(F)cccc2F)c(C(C)=O)cc(Cl)c1=O [compound 22] | L (50% or less control value) | H (more than 50% control value) | H (more than 50% control value) | L (50% or less control value) | H (more than 50% control value) | H (more than 50% control value) | H (more than 50% control value) | L (50% or less control value) | – | – | – | – | – | – | – | – | – | – | – | – | –
14 | CCCc1cc(Br)c(=O)n(CC(F)F)c1-c1c(F)cc(F)cc1F [compound 472] | – | – | – | – | – | – | – | – | – | – | – | – | – | – | – | – | H (more than 50% control value) | H (more than 50% control value) | H (more than 50% control value) | L (50% or less control value) | Test B control value [5, 18]: H (more than 50% control value); Test G control value [6, 19]: H (more than 50% control value); Test H control value [7, 20]: H (more than 50% control value); Test D control value [8, 18]: H (more than 50% control value)
15 | CCOC(C)(c1cc(Cl)c(=O)n(CC)c1-c1c(F)cc(OC)cc1F)C(C)C (centres unmarked) [compound 241] | – | – | – | – | – | – | – | – | H (more than 50% control value) | H (more than 50% control value) | H (more than 50% control value) | L (50% or less control value) | H (more than 50% control value) | L (50% or less control value) | H (more than 50% control value) | H (more than 50% control value) | – | – | – | – | –
16 | Cc1ccc(=O)n(C)c1-c1c(F)cccc1F [compound 3] | L (50% or less control value) | H (more than 50% control value) | L (50% or less control value) | L (50% or less control value) | L (50% or less control value) | L (50% or less control value) | L (50% or less control value) | L (50% or less control value) | – | – | – | – | – | – | – | – | – | – | – | – | –
